In US20220274947A1, “NOVEL HETEROARYL-TRIAZOLE COMPOUNDS AS PESTICIDES” (Bayer Aktiengesellschaft, priority 2019, published 2022):

Experiments:
Type in all cases: in vivo
[1] = test system: Aedes aegypti strain MONHEIM; test: Aedes aegypti test (AEDSAE surface treatment & contact assay); conditions: exposure 30 minutes, 24 hours after contact, read-out: efficacy (mortality); for mortality at 4 mg/m2: surface concentration 4 mg/m^2, glazed tile; for mortality at 20 mg/m2: surface concentration 20 mg/m^2, glazed tile
Description: Aedes aegypti Test (AEDSAE Surface Treatment & Contact Assay) Solvent: Aceton+2000 ppm rapeseed oil methyl ester (RME)
In order to produce a sufficient, active ingredient containing solution it is necessary to solve the test compound in the solvent-mix (acetone at 2 mg/ml/RME 2000 ppm). This solution is pipetted onto a glazed tile and after evaporation of the acetone, adult mosquitoes of the species Aedes aegypti strain MONHEIM are placed onto the dried surface. The exposure time is 30 minutes. Mortality in percent (%) is determined 24 hours after contact of the insects to the treated surface. 100% mortality means that all tested insects are dead, whereas 0% means that no insect died.

[2] = test system: Ctenocephalides felis; test: Ctenocephalides felis oral test (CTECFE Oral); conditions: 48 h, read-out: activity (mortality)
Description: Ctenocephalides felis—Oral Test (CTECFE Oral) Solvent: dimethyl sulfoxide
To produce a suitable preparation of active compound, 10 mg of active compound are dissolved in 0.5 mL solvent, and the concentrate is diluted with cattle blood to the desired concentration.
Approximately 20 adult unfed cat fleas (Ctenocephalides felis) are placed in flea chambers. The blood chamber, sealed with parafilm on the bottom, are filled with cattle blood supplied with compound solution and placed on the gauze covered top of the flea chamber, so that the fleas are able to suck the blood. The blood chamber is heated to 37° C. whereas the flea chamber is kept at room temperature.
After 2 days mortality in % is determined. 100% means all the fleas have been killed; 0% means none of the fleas have been killed.

[3] = test system: Musca domestica strain WHO—N; test: Musca domestica test (MUSCDO surface treatment & contact assay); conditions: exposure 30 minutes, 24 hours after contact, read-out: efficacy (mortality); for mortality at 20 mg/m2: surface concentration 20 mg/m^2, glazed tile
Description: Musca domestica Test (MUSCDO Surface Treatment & Contact Assay) Solvent: Aceton+2000 ppm rapeseed oil methyl ester (RME)
In order to produce a sufficient, active ingredient containing solution it is necessary to solve the test compound in the solvent-mix (acetone at 2 mg/ml/RME 2000 ppm). This solution is pipetted onto a glazed tile and after evaporation of the acetone, adult flies of the species Musca domestica strain WHO—N are placed onto the dried surface. The exposure time is 30 minutes. Mortality in percent (%) is determined 24 hours after contact of the insects to the treated surface. 100% mortality means that all tested insects are dead, whereas 0% means that no insect died.

[4] = test system: Rhipicephalus microplus; test: Rhipicephalus (Boophilus) microplus injection test (BOOPMI Inj); conditions: 168 h, injection into adult engorged female ticks, egg deposition after 7 days, read-out: activity (efficacy: 100% means all eggs are infertile); for pest or weed control at 0.004 mg: application rate 4 μg/tick; for pest or weed control at 0.02 mg: application rate 20 μg/tick
Outline: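 Five engorged adult female R. microplus ticks injected into the abdomen with 1 μL of compound diluted in DMSO, then kept in a climate chamber. Fertile egg deposition checked after 7 days; eggs without visible fertility held until hatching at about 42 days. Efficacy: 100% = all eggs infertile, 0% = all fertile.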

[5] = test system: Diabrotica balteata; test: Diabrotica balteata spray test; conditions: 168 h, wheat seeds, larvae, after 7 days, read-out: activity (efficacy: 100% means all seedlings have grown up like in the untreated, uninfected control); for pest or weed control at 32 µg/disc, 100 g/ha: application rate 100 g/ha (=32 μg/well); for pest or weed control at 160 µg/disc, 500 g/ha: application rate 500 g/ha (=160 μg/well)
Outline: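 Wheat seedlings, germinated 1 day on agar, were sprayed with compound in acetone/DMF diluted in water containing emulsifier, then infested with 10-20 Diabrotica balteata larvae. After 7 days efficacy in % was scored: 100% means seedlings grew like the untreated, uninfected control; 0% means none grew.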

[6] = test system: Myzus persicae; test: Myzus persicae oral test; conditions: 120 h, read-out: activity (mortality)
Description: Myzus persicae—Oral Test Solvent: 100 parts by weight acetone
To produce a suitable preparation of active compound, 1 part by weight of active compound is mixed with the stated amount of solvent, and the concentrate is diluted with water to the desired concentration.
50 μL compound solution is filled in microtiter plates and 150 μL IPL41 insect medium (33%+15% sugar) is added to obtain a total volume of 200 μL per well. Afterwards the plates are sealed with parafilm through which a mixed population of the green peach aphid (Myzus persicae) can suck on the compound preparation.
After 5 days mortality in % is determined. 100% means all aphids have been killed and 0% means none of the aphids have been killed.

[7] = test system: Rhipicephalus microplus; test: Rhipicephalus (Boophilus) microplus in-vitro contact test, larval cattle tick, strain Parkhurst (BOOPMI Cont); conditions: application rate 5 μg/cm^2 (=500 g/ha), tick larvae, after 48 hours, read-out: activity (efficacy: 100% means all larvae are dead or moribund)
Outline: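 Acetone solutions dried onto glass tube walls (900 ppm giving 5 μg/cm^2); 20-50 pyrethroid-resistant Parkhurst larvae added per tube and held 48 h at 27° C., 85% relative humidity. Efficacy scored by negative geotaxis as % dead or moribund larvae.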

[8] = test system: Spodoptera frugiperda; test: Spodoptera frugiperda spray test; conditions: in Zea mays, 168 h, read-out: activity (mortality)
Outline: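 Maize leaf sections were sprayed with compound formulated in acetone/DMF and diluted in water containing 1000 ppm emulsifier. Dried leaves were infested with fall armyworm larvae, and percent mortality was scored after 7 days.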

[9] = test system: Ctenocephalides felis; test: Ctenocephalides felis in-vitro contact test, adult cat flea (CTECFE Cont); conditions: application rate 5 μg/cm^2 (=500 g/ha), adult cat fleas, after 48 hours, read-out: activity (efficacy: 100% means all fleas are dead or moribund)
Description: Ctenocephalides felis—In-Vitro Contact Tests Adult Cat Flea (CTECFE Cont)
9 mg compound is solved in 1 mL acetone and diluted with acetone to the desired concentration. 250 μL of the test solution is filled in 25 mL glass test tubes and homogeneously distributed on the inner walls by rotation and tilting on a shaking device (2 h at 30 rpm). With a compound concentration of 900 ppm, an inner surface of 44.7 cm^2 and a homogeneous distribution, a dose of 5 μg/cm^2 is achieved.
After the solvent has evaporated, each test tube is filled with 5-10 adult cat fleas (Ctenocephalides felis), closed with a perforated lid and incubated in a lying position at room temperature and relative humidity. After 48 hours efficacy is determined. The fleas are patted on the ground of the tubes and are incubated on a heating plate at 45-50° C. for at most 5 minutes. Immotile or uncoordinated moving fleas, which are not able to escape the heat by climbing upwards, are marked as dead or moribund.
An efficacy of 100% means all fleas are dead or moribund; 0% means no fleas are dead or moribund.

[10] = test system: Rhipicephalus sanguineus; test: Rhipicephalus sanguineus in-vitro contact test, adult brown dog ticks (RHIPSA Cont); conditions: 48 h, after 48 hours, read-out: activity (efficacy: 100% means all ticks are dead or moribund); for pest or weed control at 5 µg/cm2, 500 g/ha: application rate 5 μg/cm^2 (=500 g/ha)
Description: Rhipicephalus sanguineus-In-Vitro Contact Tests with Adult Brown Dog Ticks ([…] Cont) 9 mg compound is solved in 1 mL acetone and diluted with acetone to the desired concentration. 250 μL of the test solution is filled in 25 mL glass test tubes and homogeneously distributed on the inner walls by rotation and tilting on a shaking device (2 h at 30 rpm). […] After 48 hours efficacy is determined. The ticks are patted on the ground of the tubes and are incubated on a heating plate at 45-50° C. for at most 5 minutes. Immotile or uncoordinated moving ticks, which are not able to escape the heat by climbing upwards, are marked as dead or moribund.

SMILES | mortality at 4 mg/m2 [1] [%] | mortality at 20 mg/m2 [1] [%] | mortality at 100 ppm [2] [%] | mortality at 20 mg/m2 [3] [%] | pest or weed control at 0.004 mg [4] [%] | pest or weed control at 0.02 mg [4] [%] | pest or weed control at 32 µg/disc, 100 g/ha [5] [%] | pest or weed control at 160 µg/disc, 500 g/ha [5] [%] | mortality at 4 ppm [6] [%] | pest or weed control at 5 µg/cm2 [7] [%] | mortality at 100 g/ha [8] [%] | mortality at 500 g/ha [8] [%] | pest or weed control at 5 µg/cm2 [9] [%] | pest or weed control at 5 µg/cm2, 500 g/ha [10] [%] | pest or weed control at 1 µg/cm2, 100 g/ha ([10]; application rate 1 μg/cm^2 (=100 g/ha)) [%] | mortality at 4 mg/m2 ([3]; surface concentration 4 mg/m^2, glazed tile) [%] | mortality at 0.8 ppm [6] [%]
CC(NC(=O)c1cc(Cl)cc(C(F)(F)F)c1)c1nc(C(F)F)nn1-c1ccc(C#N)cn1 (racemic) [I-9] | 80 to 100 | 80 to 100 | 100 | 80 to 100 | 100 | 100 | 100 | 100 | 100 | 100 | 100 | – | – | – | – | – | –
COc1nc([C@H](C)NC(=O)c2cc(Cl)cc(C(F)(F)F)c2)n(-c2ccc(C#N)cn2)n1 [I-10, 3-chloro-N-{(1S)-1-[1-(5-cyanopyridin-2-yl)-3-methoxy-1H-1,2,4-triazol-5-yl]ethyl}-5-(trifluoromethyl)benzamide] | – | – | 100 | 80 to 100 | 100 | 100 | 100 | 100 | 100 | 100 | 100 | 100 | – | – | – | – | –
CC(C)c1nc([C@H](C)NC(=O)c2cc(Br)cc(C(F)(F)F)n2)n(-c2ccc(C#N)cn2)n1 [I-20] | – | – | – | – | – | – | – | – | – | – | – | – | 80 | – | – | – | –
C[C@H](NC(=O)c1cc(Br)cc(C(F)(F)F)c1)c1nc(C2CC2)nn1-c1ccc(C#N)cn1 [I-31] | – | – | 100 | 80 to 100 | 100 | 100 | 100 | – | 100 | 100 | – | – | – | 80 | – | – | –
C[C@H](NC(=O)c1cc(Cl)cc(Br)c1)c1nc(C2CC2)nn1-c1ccc(C#N)cn1 [I-32] | – | – | 100 | – | 100 | 100 | 100 | – | 100 | 100 | 100 | – | – | 100 | 80 | – | –
C[C@H](NC(=O)c1cc(Cl)cc(OC(F)F)c1)c1nc(C2CC2)nn1-c1ccc(C#N)cn1 [I-34] | – | – | 100 | 80 to 100 | 100 | 100 | 100 | – | – | 90 | 100 | – | – | – | – | – | –
C[C@H](NC(=O)c1cc(Br)cc(C#N)c1)c1nc(C2CC2)nn1-c1ccc(C#N)cn1 [I-35] | – | 80 to 100 | 100 | 80 to 100 | 100 | 100 | 100 | – | – | 100 | – | – | – | – | – | – | –
C[C@H](NC(=O)c1cc(C#N)cc(C(F)(F)F)c1)c1nc(C2CC2)nn1-c1ccc(C#N)cn1 [I-44] | 80 to 100 | 80 to 100 | 100 | 80 to 100 | 100 | – | 100 | – | – | 100 | 100 | – | – | – | – | 80 to 100 | 90
C[C@H](NC(=O)c1cc(C(F)(F)F)cc(C(F)(F)F)c1)c1ncnn1-c1cc(C(=O)N(C)CC(F)(F)F)ccn1 [II-88] | – | – | – | – | – | – | 100 | – | 100 | 100 | 100 | – | 100 | – | – | – | –
CC(C)CNC(=O)c1ccnc(-n2ncnc2[C@H](C)NC(=O)c2cc(C(F)(F)F)cc(C(F)(F)F)c2)c1 [II-90] | – | – | – | – | – | – | – | – | 100 | 100 | 83 | – | 80 | – | – | – | –
